In patent US8039430B2 (University of Wollongong, priority 2005, dated 2011):
In brackets after ≈: the same amount, converted by molar mass. Like-named read-outs stand apart in the source and are kept apart here.

Tests used:
[1] = tested on: Staphylococcus aureus (ATCC 6538P); assay: Antibacterial assay (MIC), Staphylococcus aureus ATCC 6538P, Luria Broth, Example 1; format: cell-based; conditions: for MIC: Staphylococcus aureus, ATCC6538P, read-out: Sa (minimum inhibitory concentration)
Procedure: (§1) Antibacterial Assay Method for Staphylococcus aureus (ATCC 6538P) and Enterococcus faecium
Staphylococcus aureus (ATCC 6538P)
(§2) Compounds are accurately weighed out (between approx. 1-2 mg) and dissolved in either 10% methanol/water (v/v) or 100% DMSO to a final stock concentration of 5 mg/ml.
(§3) Compounds are then diluted 1/10 in H2O to a test conc of 500 ug/ml ready for immediate use, or storage at −20° C.
(§4) Grow up an o/n starter culture of Staphylococcus aureus and each VRE strain by diluting previous culture (stored at 4° C.) 1/1000 into −50 mls Luria Broth (LB) for S. aureus or Enterococossel Broth (EB) for the VRE strains.
(§5) Incubate o/n at 37° C.+shaking. • A glycerol stock (0.6 mls bacterial culture, 0.3 mls glycerol) of each strain is kept at −80° C. if needed. Assay Set Up:
(§6) In a 96well round bottom plate add 50 ul LB/well for the S. aureus plate and add 50 ul EB/well for the VRE plates.
(§7) Add 50 ul of compound dilution (500 ug/ml test conc) to each of three top row wells (ie: tested in triplicate) and dilute 1 in 2 from the top row to the bottom row.
(§8) After the compound dilution, add to each well 50 ul of a 1/1000 dilution of the appropriate overnight bacterial culture, either S. aureus or the different VRE strains.
(§9) Plates are incubated at 37° C. on a slowly rotating plate incubator. • test concentrations are (in ug/ml) 125, 62.5, 31.25, 15.6, 7.8, 3.9, 1.9, 0.98 • final DMSO concentration in the first row of wells of the assay is 2.5% • Vancomycin is included in the assay (in triplicate) at a starting test concentration of 5 ug/ml for S. aureus and 125 ug/ml for the VRE strains Reading Results of Assay:
(§10) After incubation for 24 hrs the plates are removed and read. Inhibition of bacterial growth is indicated by lack of bacterial pellet or a clear well. In the VRE plates bacterial growth is indicated by black coloured media (EB) as well as a bacterial pellet.
(§11) Untreated control wells are included in the assay to check they all contain bacterial pellets. Uninoculated untreated control wells are included to check they all contain clear medium.
(§12) The plates are analysed for MIC and the results tabulated.

[2] = tested on: #987 E. faecium van B ST39; assay: Antibacterial assay (MIC), VRE strain #987, Enterococossel Broth, Example 1; format: cell-based, Enterococcus faecium; conditions: for MIC: Enterococcus faecium, read-out: 987 (minimum inhibitory concentration)
Procedure: as §1
(§13) #820 E. faecium van A ST17 #987 E. faecium van B ST39
as §2, §3, §4, §5, §6, §7, §8, §9, §10, §11, §12

[3] = tested on: #449 E. faecium van B ST17; assay: Antibacterial assay (MIC), VRE strain #449, Enterococossel Broth, Example 1; format: cell-based, Enterococcus faecium; conditions: for MIC: Enterococcus faecium, read-out: 449 (minimum inhibitory concentration)
Procedure: as §1
(§14) VRE strains: #243 E. faecium van B ST17 #449 E. faecium van B ST17
as §2, §3, §4, §5, §6, §7, §8, §9, §10, §11, §12

[4] = tested on: #820 E. faecium van A ST17; assay: Antibacterial assay (MIC), VRE strain #820, Enterococossel Broth, Example 1; format: cell-based, Enterococcus faecium; conditions: for MIC: Enterococcus faecium, read-out: 820 (minimum inhibitory concentration)
Procedure: as §1, §13, §2, §3, §4, §5, §6, §7, §8, §9, §10, §11, §12

[5] = tested on: #243 E. faecium van B ST17; assay: Antibacterial assay (MIC), VRE strain #243, Enterococossel Broth, Example 1; format: cell-based, Enterococcus faecium; conditions: for MIC: Enterococcus faecium, read-out: 243 (minimum inhibitory concentration)
Procedure: as §1, §14, §2, §3, §4, §5, §6, §7, §8, §9, §10, §11, §12

[6] = Example 1 compounds, S. aureus ATCC 6538P, 24 hrs, 37° C., range if at least two of three values fell within it
[7] = Example 1 compounds, VRE #987 E. faecium van B, 24 hrs, 37° C.
[8] = Example 1 compounds, VRE #449 E. faecium van B, 24 hrs, 37° C.
[9] = Example 1 compounds, VRE #820 E. faecium van A, 24 hrs, 37° C.
[10] = Example 1 compounds, VRE #243 E. faecium van B, 24 hrs, 37° C.

| MIC [1, 6] [µg/mL] | MIC [2, 7] [µg/mL] | MIC [3, 8] [µg/mL] | MIC [4, 9] [µg/mL] | MIC [5, 10] [µg/mL] | SMILES | also measured |
| --- | --- | --- | --- | --- | --- | --- |
| 0.99 to 15.6 | > 62.6 | 15.7 to 62.5 | 15.7 to 62.5 | > 62.6 | Cl.Cl.NCCCC[C@@H](NC(=O)CCCOc1ccc2ccccc2c1-c1c(OCCCC(=O)N[C@H](CCCCN)C(=O)OCc2ccccc2)ccc2ccccc12)C(=O)OCc1ccccc1 (atropisomer, axis not shown) [Compound 34] | – |
| – | – | – | – | – | COC(=O)[C@H]1CC=CCOc2ccc(cc2)C[C@H](NC(C)=O)C(=O)N[C@@H](CCCN=C(N)NS(=O)(=O)c2c(C)c(C)c3c(c2C)CCC(C)(C)O3)C(=O)N1 [Compound 47] | Sa (minimum inhibitory concentration) [1, 6]: +++ (MIC of the compound in the range of greater than or equal to 0.99 (μg/ml) and less than or equal to 15.6 (μg/ml)); 987 (minimum inhibitory concentration) [2, 7]: + (MIC of the compound in the range of greater than or equal to 62.6 (μg/ml)); 449 (minimum inhibitory concentration) [3, 8]: + (MIC of the compound in the range of greater than or equal to 62.6 (μg/ml)); 820 (minimum inhibitory concentration) [4, 9]: + (MIC of the compound in the range of greater than or equal to 62.6 (μg/ml)); 243 (minimum inhibitory concentration) [5, 10]: + (MIC of the compound in the range of greater than or equal to 62.6 (μg/ml)) |
| 0.99 to 15.6 | 15.7 to 62.5 | 15.7 to 62.5 | 15.7 to 62.5 | 15.7 to 62.5 | CC(C)CCOc1ccc2ccccc2c1-c1c(OCC(=O)N[C@H](CCCCN)C(=O)N[C@H](CCCNC(=N)N)C(=O)N[C@@H](CC(C)C)C(=O)OCc2ccc(Cl)cc2)ccc2ccccc12.Cl.Cl (atropisomer, axis not shown) [Compound 4] | – |
| 0.99 to 15.6 | 15.7 to 62.5 | 15.7 to 62.5 | 15.7 to 62.5 | 15.7 to 62.5 | CCC(C)[C@H](NC(=O)[C@@H](CCCNC(=N)N)NC(=O)[C@@H](CCCCN)NC(=O)COc1ccc2ccccc2c1-c1c(OCCC(C)C)ccc2ccccc12)C(=O)OCc1ccccc1.Cl.Cl (stereo partly drawn) [Compound 3] | – |
| 0.99 to 15.6 | 15.7 to 62.5 | 15.7 to 62.5 | 15.7 to 62.5 | 15.7 to 62.5 | CC(C)CCOc1ccc2ccccc2c1-c1c(OCC(=O)N[C@H](CCCCN)C(=O)N[C@H](CCCNC(=N)N)C(=O)NC2(C(=O)OCc3ccccc3)CCCC2)ccc2ccccc12.Cl.Cl (atropisomer, axis not shown) [Compound 20] | – |
| – | – | – | – | – | N=C(N)NCCC[C@@H](NC(=O)CCCOc1ccc2ccccc2c1-c1c(OCCCC(=O)N[C@H](CCCNC(=N)N)C(=O)OCc2ccccc2)ccc2ccccc12)C(=O)OCc1ccccc1 [Compound 38] | MIC ([1]; 24 h): 0.99 to 15.6 µg/mL (≈ 1.04 to 16.4 µM); MIC ([5]; VRE, 24 h): 15.7 to 62.5 µg/mL (≈ 16.5 to 65.7 µM) |
| – | – | – | – | – | NCCCC[C@@H](NC(=O)CCCOc1ccc2ccccc2c1-c1c(OCCCC(=O)N[C@H](CCCCN)C(=O)OCc2ccccn2)ccc2ccccc12)C(=O)OCc1ccccn1 [Compound 36] | MIC ([1]; 24 h): > 62.6 µg/mL; MIC ([2]; VRE, 24 h): > 62.6 µg/mL; MIC ([3]; VRE, 24 h): > 62.6 µg/mL; MIC ([4]; VRE, 24 h): > 62.6 µg/mL; MIC ([5]; VRE, 24 h): > 62.6 µg/mL |
| 0.99 to 15.6 | 15.7 to 62.5 | 15.7 to 62.5 | 15.7 to 62.5 | 15.7 to 62.5 | CC(C)CCOc1ccc2ccccc2c1-c1c(OCC(=O)N[C@H](CCCCN)C(=O)N[C@H](CCCNC(=N)N)C(=O)N[C@H](C(=O)OCc2ccccc2)C(C)C)ccc2ccccc12.Cl.Cl (atropisomer, axis not shown) [Compound 2] | – |
| 0.99 to 15.6 | 15.7 to 62.5 | 15.7 to 62.5 | 15.7 to 62.5 | 15.7 to 62.5 | C=CC[C@H](NC(=O)[C@@H](CCCNC(=N)N)NC(=O)[C@@H](CCCCN)NC(=O)COc1ccc2ccccc2c1-c1c(OCC2CCC2)ccc2ccccc12)C(=O)OCc1ccccc1.Cl.Cl (atropisomer, axis not shown) [Compound 24] | – |
| 0.99 to 15.6 | 15.7 to 62.5 | 15.7 to 62.5 | 15.7 to 62.5 | 15.7 to 62.5 | CC(C)CCOc1ccc2ccccc2c1-c1c(OCC(=O)N[C@H](CCCCN)C(=O)N[C@H](CCCNC(=N)N)C(=O)N[C@@H](Cc2ccccc2)C(=O)OCc2ccccc2)ccc2ccccc12.Cl.Cl (atropisomer, axis not shown) [Compound 19] | – |
| 0.99 to 15.6 | 15.7 to 62.5 | 15.7 to 62.5 | 15.7 to 62.5 | 15.7 to 62.5 | CC(C)CCOc1ccc2ccccc2c1-c1c(OCC(=O)N[C@H](CCCCN)C(=O)N[C@H](CCCNC(=N)N)C(=O)N[C@@H](CC(C)C)C(=O)OCc2ccccc2Cl)ccc2ccccc12.Cl.Cl (atropisomer, axis not shown) [Compound 7] | – |
| 0.99 to 15.6 | > 62.6 | > 62.6 | 15.7 to 62.5 | > 62.6 | Cl.Cl.N=C(N)NCCCC[C@@H](NC(=O)CCCOc1ccc2ccccc2c1-c1c(OCCCC(=O)N[C@H](CCCCNC(=N)N)C(=O)Oc2cccc3ccccc23)ccc2ccccc12)C(=O)Oc1cccc2ccccc12 (atropisomer, axis not shown) [Compound 40] | – |
| 0.99 to 15.6 | 15.7 to 62.5 | 15.7 to 62.5 | 15.7 to 62.5 | 15.7 to 62.5 | C=CC[C@H](NC(=O)[C@@H](CCCNC(=N)N)NC(=O)[C@@H](CCCCN)NC(=O)COc1ccc2ccccc2c1-c1c(OCC2CCCCC2)ccc2ccccc12)C(=O)OCc1ccccc1.Cl.Cl (atropisomer, axis not shown) [Compound 23] | – |
| 0.99 to 15.6 | > 62.6 | 15.7 to 62.5 | 15.7 to 62.5 | 15.7 to 62.5 | CC(C)CCOc1ccc2ccccc2c1-c1c(OCC(=O)N[C@H](CCCCN)C(=O)N[C@H](CCCNC(=N)N)C(=O)N[C@@H](CC(C)C)C(=O)NCc2ccccc2)ccc2ccccc12.Cl.Cl (atropisomer, axis not shown) [Compound 14] | – |
| 0.99 to 15.6 | 15.7 to 62.5 | 15.7 to 62.5 | 15.7 to 62.5 | 15.7 to 62.5 | C=CC[C@H](NC(=O)[C@@H](CCCNC(=N)N)NC(=O)[C@@H](CCCCN)NC(=O)COc1ccc2ccccc2c1-c1c(OCC(C)C)ccc2ccccc12)C(=O)OCc1ccccc1.Cl.Cl (atropisomer, axis not shown) [Compound 25] | – |
| 0.99 to 15.6 | 15.7 to 62.5 | 15.7 to 62.5 | 15.7 to 62.5 | 15.7 to 62.5 | CC(C)CCOc1ccc2ccccc2c1-c1c(OCC(=O)N[C@H](CCCCN)C(=O)N[C@H](CCCNC(=N)N)C(=O)N[C@@H](CC(C)C)C(=O)OCCc2ccccc2)ccc2ccccc12.Cl.Cl (atropisomer, axis not shown) [Compound 13] | – |
| 0.99 to 15.6 (≈ 1.1 to 17.3 µM) | 15.7 to 62.5 (≈ 17.4 to 69.3 µM) | 15.7 to 62.5 (≈ 17.4 to 69.3 µM) | 15.7 to 62.5 (≈ 17.4 to 69.3 µM) | 15.7 to 62.5 (≈ 17.4 to 69.3 µM) | CC(C)CCOc1ccc2ccccc2c1-c1c(OCC(=O)N[C@H](CCCCN)C(=O)N[C@H](CCCNC(=N)N)C(=O)N[C@@H](CC(C)C)C(=O)OCc2ccccc2)ccc2ccccc12 (atropisomer, axis not shown) [Compound 10] | – |
| – | – | – | – | – | COC(=O)[C@@H](CCCNC(=N)N)NC(=O)CCCOc1ccc2ccccc2c1-c1c(OCCCC(=O)N[C@H](CCCNC(=N)N)C(=O)OC)ccc2ccccc12 [Compound 33] | MIC ([1]; 24 h): 0.99 to 15.6 µg/mL (≈ 1.24 to 19.5 µM); MIC ([3]; VRE, 24 h): > 62.6 µg/mL; MIC ([4]; VRE, 24 h): > 62.6 µg/mL |

| SMILES | MIC [1, 6] [µg/mL] | MIC [2, 7] [µg/mL] | MIC [3, 8] [µg/mL] | MIC [4, 9] [µg/mL] | MIC [5, 10] [µg/mL] | also measured |
| --- | --- | --- | --- | --- | --- | --- |
| C=CCOc1ccc2ccccc2c1-c1c(OCC(=O)N[C@H](CCCN)C(=O)Nc2cccc(C(=O)NOCc3ccccc3)c2)ccc2ccccc12 [Compound 43] | 0.99 to 15.6 (≈ 1.37 to 21.6 µM) | > 62.6 | > 62.6 | 15.7 to 62.5 (≈ 21.7 to 86.5 µM) | > 62.6 | – |
